Measured values reported in ChEMBL document CHEMBL1151389, “Antitumor agents 57. The isolation and structural elucidation of microhelenin-E, a new antileukemic nor-pseudoguaianolide, and microhelenin-F from Helenium microcephalum” (1982).
In brackets after ≈: the same amount, converted by molar mass.

Assays:
[1] = test system: P388; assay: Antileukemic activity against mouse P388 cells […] in BDF1 mouse at 8 mg/kg; format: functional
[2] = test system: KB; assay: Cytotoxicity against human KB cells; format: functional; conditions: read-out: ED50 (the source's name)

SMILES: CC(C)=C1C(=O)O[C@@H]2C[C@@H](C)[C@]3(O)C=CC(=O)[C@@H]3C[C@H]12 [MICROHELENIN E]
- T/C [1]: 166%
- EC50 [2]: 1.38 µg/mL (≈ 4.99 µM)

SMILES: CC(C)=C1C(=O)O[C@@H]2C[C@@H](C)[C@@H]3C=CC(=O)[C@]3(O)C[C@H]12 [MICROHELENIN F]
- T/C [1]: 116%
- EC50 [2]: 11 µg/mL (≈ 39.8 µM)
